Results published in PMC7534323 (Journal of Enzyme Inhibition and Medicinal Chemistry, 2020).
Several values for one entry are separate records, joined by “and”; a condition that tells them apart may be missing. Identical values can stand only once.

What was measured:
[1] = biological target: T1, human erythrocyte acetylcholinesterase (AChE) (Homo sapiens, UniProt P22303); assay: biochemical; type: biochemical
T1 construct: 400-fold diluted solution of haemolysed erythrocytes or 200-fold diluted plasma; from tissue; host or cells: haemolysed erythrocytes from blood of healthy human donors
Experimental: (§1) Blood samples were obtained from healthy donors of Blood Donation Centre in Lodz and The Voievodal Specialised Hospital in Lodz. The preparation of erythrocytes for AChE activity measurements and plasma for the assessment of BuChE activity has been described previously.
(§2) The biological sample, consisting of a 400-fold diluted solution of haemolysed erythrocytes or 200-fold diluted plasma was incubated for 15 min (37 °C) with DTNB; the tested compound was then added in a volume of 10 µL. The enzymatic reaction was initiated by addition of a reaction substrate (ATC or BTC).

[2] = biological target: human plasma butyrylcholinesterase (BuChE) (Homo sapiens, UniProt P06276); assay: biochemical
Experimental: as §1, §2

BuChE in human plasma = BuChE in human plasma (Homo sapiens, UniProt P06276)
Experimental: Due to the high level of variation in the individual concentration and activity of BuChE in human plasma, 32 biological samples were studied.
The kinetic parameters of enzymatic reactions were estimated using linear regression (Hanes-Woolf plots). The following parameters were calculated: the maximal velocity (Vmax) and the Michaelis constant (Km).
The kinetic parameters of BuChE reactions were obtained in a series of experiments using decreasing concentrations of BTC. The curves were analysed using the Hanes-Woolf equation, in which the ratio of the initial substrate concentration [S] to the reaction velocity v is plotted against [S].

T1 sequence (P22303 other isoform, or with tags, fused parts or gaps): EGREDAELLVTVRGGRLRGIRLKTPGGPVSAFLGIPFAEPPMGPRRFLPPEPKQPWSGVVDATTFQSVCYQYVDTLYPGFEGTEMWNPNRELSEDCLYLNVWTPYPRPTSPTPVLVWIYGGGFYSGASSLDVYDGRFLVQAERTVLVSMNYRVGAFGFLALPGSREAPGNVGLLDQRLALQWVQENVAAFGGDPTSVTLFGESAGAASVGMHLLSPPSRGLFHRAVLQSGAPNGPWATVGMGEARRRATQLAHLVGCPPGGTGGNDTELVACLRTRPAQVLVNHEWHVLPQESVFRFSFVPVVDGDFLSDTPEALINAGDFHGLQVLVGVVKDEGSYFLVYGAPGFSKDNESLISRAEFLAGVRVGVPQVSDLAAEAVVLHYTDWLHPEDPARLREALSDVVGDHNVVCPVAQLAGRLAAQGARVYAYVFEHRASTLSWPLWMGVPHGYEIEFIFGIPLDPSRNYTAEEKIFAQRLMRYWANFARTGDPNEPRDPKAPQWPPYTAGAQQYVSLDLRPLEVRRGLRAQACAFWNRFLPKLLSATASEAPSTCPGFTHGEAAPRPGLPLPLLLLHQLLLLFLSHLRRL
BuChE in human plasma, sequence (P06276 29-602): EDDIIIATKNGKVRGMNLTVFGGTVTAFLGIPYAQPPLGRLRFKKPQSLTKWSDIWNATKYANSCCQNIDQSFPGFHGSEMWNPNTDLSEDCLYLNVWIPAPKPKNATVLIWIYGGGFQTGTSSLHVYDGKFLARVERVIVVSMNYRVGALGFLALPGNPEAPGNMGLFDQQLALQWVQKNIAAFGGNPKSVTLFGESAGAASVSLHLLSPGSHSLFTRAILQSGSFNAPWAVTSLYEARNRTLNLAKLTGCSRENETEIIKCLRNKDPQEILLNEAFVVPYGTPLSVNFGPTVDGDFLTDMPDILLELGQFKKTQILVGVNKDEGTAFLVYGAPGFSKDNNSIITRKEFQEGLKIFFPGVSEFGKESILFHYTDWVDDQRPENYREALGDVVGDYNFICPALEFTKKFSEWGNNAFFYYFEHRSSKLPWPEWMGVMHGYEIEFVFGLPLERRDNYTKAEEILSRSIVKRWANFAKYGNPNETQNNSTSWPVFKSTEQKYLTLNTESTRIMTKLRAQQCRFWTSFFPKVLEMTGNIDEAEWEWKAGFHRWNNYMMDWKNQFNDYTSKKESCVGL
human plasma butyrylcholinesterase (BuChE), sequence (P06276 29-602): as above

Row | Compound | maximal inhibition of AChE ([1]; concentration range 0.01−100 µmol/L, vs control (100% of activity), listed as compound 2) | IC50 [1] [µM] | inhibition at 100 µM ([1]; read-out: maximal inhibitory effect against AChE) [%] | IC50 [2] [µM] | type of BuChE inhibition (BuChE in human plasma; from Km and Vmax with and without inhibitor at IC50 concentration) | Vmax(i) (Vmax of the reactions with inhibitor) (BuChE in human plasma; inhibitor at IC50 concentration, substrate BTC, mean ± SD) [A/min]
1 | Cc1ncc(C)n2nc(-c3ccn4cc(-c5ccccc5)nc4n3)nc12 [CPL500036-02] | 34.87 ± 1.65% and ~34.87% | – | – | – | – | –
2 | OCCOCCN1CCN(C2=Nc3ccccc3Sc3ccccc32)CC1 [Quetiapine] | – | > 100 | 8.82 ± 1.68 | 6.08 ± 1.64 | mixed inhibition | 0.137 ± 0.036
